From patent publication US9393187B2, “Peptide compounds that inhibit neuronal exocytosis” (LUBRIZOL ADVANCED MATERIALS, INC., priority 2012, dated 2016)

Test system: human neuroblastoma cell line
Assay: Release of noradrenaline induced by TPA/Ionomycin in a neuroblastoma cell line, quantified by ELISA
Format: cell-based
Settings: TPA/ION control = 100
Method: Quantification of the Release of Noradrenaline Induced by TPA/Ionomycin in a Neuroblastoma Cell Line by ELISA
The induction of the release of noradrenaline with TPA (12-O-tetradecanoylphorbol-13-acetate)/lonomycin enables direct measurement of neuronal exocytosis. For the study of the inhibitory effect of the compounds of the invention on the release of noradrenaline, cells of a human neuroblastoma cell line were pre-incubated (1×10^6 cells/well) for 60 minutes with the compound of the invention (1 μM, 10 μM, 100 μM, 500 μM or 1 mM compounds), and afterwards the release of noradrenaline was induced. The release of the noradrenaline neurotransmitter was induced by an 8 minute pre-treatment with a solution of 12-O-tetradecanoylphorbol-13-acetate (TPA) 100 nM, which mobilized the intracellular vesicles which contained the neuro-transmitter; followed by a 5 minute incubation with TPA/Ionomycin (100 nM/10 μM), which induced the release of the neurotransmitter contained in these vesicles. […] For this, absorbance at 405 nm was measured in Thermo Scientific Multiskan Ascent equipment.
The blocking of the SNARE complex by the compounds of the invention lead to an inhibition of neuronal exocytosis and therefore, a decrease in the levels of released noradrenaline (Table 6).

Row | Substance | % RELEASED NORADRENALINE Average (dose 1 μM) [%] | % RELEASED NORADRENALINE Average (dose 10 μM) [%] | % RELEASED NORADRENALINE Average (dose 100 μM) [%] | % RELEASED NORADRENALINE Average (dose 500 μM) [%] | % RELEASED NORADRENALINE Average (dose 1000 μM) [%]
1 | Ac-NDIAQM-NH2 [Ac-SEQ ID NO:30-NH2] | 99.59 | 94.48 | 74.79 | 48.07 | 41.05
2 | Ac-RDFDQW-NH2 [Ac-SEQ ID NO:31-NH2] |  | 83.33 | 69.07 |  | 31.72
